One experiment concerns the target T1, Caspase-1 (Homo sapiens) (UniProt P29466).
T1 sequence (whole entry): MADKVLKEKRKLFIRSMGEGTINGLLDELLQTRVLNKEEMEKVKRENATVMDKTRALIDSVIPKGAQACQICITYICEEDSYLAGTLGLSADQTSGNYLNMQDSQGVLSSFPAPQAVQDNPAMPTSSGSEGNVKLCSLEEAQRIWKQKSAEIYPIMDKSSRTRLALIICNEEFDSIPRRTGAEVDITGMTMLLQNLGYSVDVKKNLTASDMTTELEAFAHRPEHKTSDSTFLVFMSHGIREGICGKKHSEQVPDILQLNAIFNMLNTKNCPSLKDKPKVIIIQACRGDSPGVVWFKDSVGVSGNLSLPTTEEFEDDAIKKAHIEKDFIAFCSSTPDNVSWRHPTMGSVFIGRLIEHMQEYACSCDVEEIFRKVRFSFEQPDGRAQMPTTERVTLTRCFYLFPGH
Briefly: Inhibition of caspase-1 activity (unknown origin). As to conditions: dose 50-300 µM.

Experiment [1] has as its system J774.A1. The experiment in a line: Inhibition of IL-1beta release in mouse J774.A1 cells at 20 uM pretreated with LPS for 3 hrs followed by compound addition for 30 mins and nigericin stimulation for 45 mins. In kind it is functional, cell-based. As to conditions: time 75.0 min.
The subject of experiment [2] is J774.A1. The experiment in a line: Binding affinity to pro-caspase 1 in mouse J774.A1 cell lysates at 1 to 2 uM incubated for 2 hrs by pull-down assay. The class given is subcellular. As to conditions: dose 1-2 µM.
Experiment [3] relates to J774.A1. Briefly: Binding affinity to pro-caspase 1 in mouse J774.A1 cell lysates at 1 to 2 uM incubated for 2 hrs in presence of 1'-benzyl 6-(tert-butyl) (1R,4R,6R)-4-isothiocyanato-5'-methoxy-2'-oxospiro[cyclohexane-1,3'-indolin]-2-ene-1',6-dicarboxylate by pull-down assay. In kind it is subcellular. The settings on record: dose 1-2 µM.
Experiment [4] relates to J774.A1. Briefly: Binding affinity to pro-caspase 1 in mouse J774.A1 cells at 50 uM pretreated with LPS for 3 hrs and nigericin stimulation for 45 mins followed by compound addition by pull-down assay. The class given is cell-based.
The test system of experiment [5] is J774.A1. The experiment in a line: Binding affinity to pro-caspase 1 in mouse J774.A1 cells by Western blotting analysis. The class given is cell-based. (In western blotting, separated proteins are transferred to a membrane and probed.)
The target in experiment [6] is NFU1 iron-sulfur cluster scaffold homolog, mitochondrial (Mus musculus) (UniProt Q9QZ23). The experiment in a line: Binding affinity to Nfu1 in mouse J774.A1 cells lysate by mass-spectrophotometric assay. In kind it is subcellular.
In experiment [7] the target is Thioredoxin (Mus musculus) (UniProt P10639). The experiment in a line: Binding affinity to Txn in mouse J774.A1 cells lysate by mass-spectrophotometric assay. In kind it is subcellular.
The target in experiment [8] is T2, Caspase-3 (Mus musculus) (UniProt P70677).
T2 sequence (whole entry): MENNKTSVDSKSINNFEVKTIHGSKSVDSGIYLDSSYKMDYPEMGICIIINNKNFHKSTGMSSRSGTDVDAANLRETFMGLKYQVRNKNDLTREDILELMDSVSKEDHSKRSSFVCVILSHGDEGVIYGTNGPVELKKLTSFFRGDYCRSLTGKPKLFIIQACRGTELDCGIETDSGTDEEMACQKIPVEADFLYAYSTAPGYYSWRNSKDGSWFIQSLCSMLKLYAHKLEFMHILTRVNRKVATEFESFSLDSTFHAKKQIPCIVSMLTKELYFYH
The experiment in a line: Inhibition of cisplatin induced caspase-3 activation in mouse J774.A1 cells at 1 uM preincubated for 30 mins followed by cisplatin addition and incubated overnight. The class given is cell-based.

Experiment [9] deals with T3, Caspase-7 (Mus musculus) (UniProt P97864).
T3 sequence (whole entry): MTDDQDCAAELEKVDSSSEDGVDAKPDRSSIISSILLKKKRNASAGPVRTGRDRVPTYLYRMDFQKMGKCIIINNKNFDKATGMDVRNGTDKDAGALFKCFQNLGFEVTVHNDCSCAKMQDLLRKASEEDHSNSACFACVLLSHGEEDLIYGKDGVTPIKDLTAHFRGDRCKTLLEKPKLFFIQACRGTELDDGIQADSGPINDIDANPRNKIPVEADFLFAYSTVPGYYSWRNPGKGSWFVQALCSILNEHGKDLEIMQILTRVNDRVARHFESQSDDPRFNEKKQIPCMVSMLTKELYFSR
The experiment in a line: Inhibition of cisplatin induced caspase-7 activation in mouse J774.A1 cells at 1 uM preincubated for 30 mins followed by cisplatin addition and incubated overnight. In kind it is cell-based.

The subject of the next experiment is Mus musculus. The experiment in a line: Anti-inflammatory activity in MSU/C18:0 free fatty acid induced ip dosed Kunming mouse model of gouty arthritis assessed as reduction in joint swelling preadministered with compound for 30 mins followed by MSU/C18:0 free fatty acid injection and measured after 24 hrs. The class given is functional, organism-based. As to conditions: time 24.5 hrs.

In experiment [10] the target is T2, Caspase-3 (Mus musculus). Briefly: Inhibition of cisplatin induced caspase-3 activation in mouse J774.A1 cells at 0.5 uM preincubated for 30 mins followed by cisplatin addition and incubated overnight. The class given is cell-based.
The target in experiment [11] is T3, Caspase-7 (Mus musculus). The experiment in a line: Inhibition of cisplatin induced caspase-7 activation in mouse J774.A1 cells at 0.5 uM preincubated for 30 mins followed by cisplatin addition and incubated overnight. In kind it is cell-based.
For experiment [12], the system named is J774.A1. Briefly: Downregulation of inhibitor kappa B-alpha phosphorylation in mouse J774.A1 cells preincubated for 30 mins followed by LPS addition and measured after 2 hrs by Western blotting analysis. The class given is functional, cell-based. The settings on record: time 2.5 hrs.
Experiment [13] has as its system J774.A1. The experiment in a line: Downregulation of IKKalpha/beta phosphorylation in mouse J774.A1 cells preincubated for 30 mins followed by LPS addition and measured after 2 hrs by Western blotting analysis. The class given is functional, cell-based. As to conditions: time 2.5 hrs.
Experiment [14] deals with J774.A1. The experiment in a line: Downregulation of p65 phosphorylation in mouse J774.A1 cells preincubated for 30 mins followed by LPS addition and measured after 2 hrs by Western blotting analysis. The class given is functional, cell-based. The settings on record: time 2.5 hrs.
A further experiment has as its target T4, Caspase-1 (Mus musculus) (UniProt P29452).
T4 sequence (whole entry): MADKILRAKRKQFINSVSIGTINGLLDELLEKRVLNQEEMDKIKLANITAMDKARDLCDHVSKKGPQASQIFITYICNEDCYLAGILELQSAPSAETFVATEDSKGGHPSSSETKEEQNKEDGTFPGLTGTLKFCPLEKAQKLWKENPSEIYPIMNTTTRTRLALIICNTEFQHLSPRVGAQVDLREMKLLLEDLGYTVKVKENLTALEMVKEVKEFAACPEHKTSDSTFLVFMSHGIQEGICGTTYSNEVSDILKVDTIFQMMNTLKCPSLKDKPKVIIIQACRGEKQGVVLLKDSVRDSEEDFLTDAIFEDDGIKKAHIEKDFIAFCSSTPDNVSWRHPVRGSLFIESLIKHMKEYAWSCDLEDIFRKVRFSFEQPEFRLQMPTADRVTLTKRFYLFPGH
Briefly: Binding affinity to caspase-1 in LPS-induced mouse J774.A1 cells assessed as reduction in IL-1beta level at 0.5 uM preincubated with compound followed by nigericin addition. The class given is cell-based. As to conditions: time 3-24 hrs.

Experiment [15] relates to J774.A1. The experiment in a line: Inhibition of pyroptosis in mouse J774.A1 cells assessed as reduction in number of annexin V and PI positive cells pretreated with LPS for 3 hrs followed by compound addition in presence of nigericin by flow cytometry analysis. The class given is functional, cell-based.
Experiment [16] concerns J774.A1. The experiment in a line: Inhibition of pyroptosis in mouse J774.A1 cells assessed as reduction in LDH release at 0.5 to 2 uM pretreated with LPS for 3 hrs followed by compound addition in presence of nigericin. The class given is functional, cell-based. The settings on record: dose 0.5-2 µM. For orientation: LDH leaks from cells whose membrane has failed.
In experiment [17] the test system is J774.A1. Briefly: Inhibition of pyroptosis in mouse J774.A1 cells assessed as reduction in caspase-1 to GSDMD interaction at 0.5 uM pretreated with LPS for 3 hrs followed by compound addition in presence of nigericin by immunoprecipitation analysis. The class given is functional, cell-based.
Experiment [18] has as its system J774.A1. The experiment in a line: Inhibition of pyroptosis in mouse J774.A1 cells assessed as reduction in cleaved GSDMD expression pretreated with LPS for 3 hrs followed by compound addition in presence of nigericin by Western blotting analysis. The class given is functional, cell-based.

Calls of active or inactive are those of the source. The rule behind the calls is not given here. Residues, ends and D or L forms follow the SMILES beside them. *: point of attachment. Cbz = O=C(OCc1ccccc1)*; CH2F = FC*

Sequence of NFU1 iron-sulfur cluster scaffold homolog, mitochondrial (Mus musculus) (Q9QZ23 whole entry): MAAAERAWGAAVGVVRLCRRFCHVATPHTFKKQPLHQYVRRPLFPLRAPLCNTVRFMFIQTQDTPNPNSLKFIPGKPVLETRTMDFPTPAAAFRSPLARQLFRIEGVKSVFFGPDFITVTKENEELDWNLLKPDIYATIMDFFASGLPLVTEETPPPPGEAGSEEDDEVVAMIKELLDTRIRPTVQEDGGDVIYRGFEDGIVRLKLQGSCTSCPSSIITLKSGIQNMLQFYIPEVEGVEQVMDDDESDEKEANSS
Sequence of Thioredoxin (Mus musculus) (P10639 whole entry): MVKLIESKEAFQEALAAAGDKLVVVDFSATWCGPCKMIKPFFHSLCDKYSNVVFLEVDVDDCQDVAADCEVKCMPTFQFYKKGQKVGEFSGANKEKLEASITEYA

In the case of `CC(C)(C)OC(=O)[C@@H]1C[C@@H](N=C=S)C=C[C@@]12C(=O)Nc1ccc(NC(=O)CCCC[C@@H]3SC[C@@H]4NC(=O)N[C@@H]43)cc12`, the inhibition result at Caspase-1 (Homo sapiens) is “Dose-Dependent Effect”. For the same compound, in the experiment on J774.A1 [1], the inhibition result is “Active”. The result (in the experiment with J774.A1 [2]; in the experiment with J774.A1 [4]; with J774.A1 [5]; in [6]; in experiment [7]) was Active. In the experiment with J774.A1 [3], the result was inactive.

Take `COC(=O)C[C@H](NC(=O)[C@H](C)NC(=O)[C@@H](NC(=O)OCc1ccccc1)C(C)C)C(=O)CF` (Cbz-Val-Ala-Asp(OMe)-CH2F): the inhibition result on Caspase-3 (Mus musculus) [8] and at Caspase-7 (Mus musculus) [9] was “Active” each time.

With `COc1cc2c(c(OC)c1OC)-c1ccc(OC)c(=O)cc1[C@@H](NC(C)=O)CC2`, the outcome in the experiment on Mus musculus was Active.

`CCO[C@@H]1OC(=O)C[C@@H]1NC(=O)[C@@H]1CCCN1C(=O)[C@@H](NC(=O)c1ccc(N)c(Cl)c1)C(C)(C)C`: the inhibition result on Caspase-3 (Mus musculus) [10] and at Caspase-7 (Mus musculus) [11] was “inactive” throughout. Further, the outcome in the experiment with J774.A1 [12], with J774.A1 [13] and in the experiment with J774.A1 [14] was Active. In addition, the result at Caspase-1 (Mus musculus) was inactive. The inhibition entry in the experiment on J774.A1 [15], in the experiment with J774.A1 [16], in the experiment on J774.A1 [17] and with J774.A1 [18] was “Active” throughout.
